# Reference: ChEMBL document CHEMBL1201862, “PubChem BioAssay data set” (2004)
# Activity calls are given as the source filed them.
# How the values were obtained:
# [1] = growth suppression of PTEN-null colon cells, dose response, cell-based, HCT116 PTEN knockout (AID 1047); format: functional;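 note: HCT116 colon tumor cells with PTEN knocked out; cells exposed to compound for 60 hours before readout; potency for loss of cell viability measured by luminescence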
# [2] = cytotoxicity toward DRD oncogenic fibroblasts, dose response, cell-based, non-viral oncogenic, luminescence (AID 1934); format: functional; settings: Homo sapiens
# [3] = biological target: DNA damage-inducible transcript 3 protein (Mus musculus, UniProt P35639); format: functional, Cricetulus griseus
# DNA damage-inducible transcript 3 protein, sequence (P35639 whole entry): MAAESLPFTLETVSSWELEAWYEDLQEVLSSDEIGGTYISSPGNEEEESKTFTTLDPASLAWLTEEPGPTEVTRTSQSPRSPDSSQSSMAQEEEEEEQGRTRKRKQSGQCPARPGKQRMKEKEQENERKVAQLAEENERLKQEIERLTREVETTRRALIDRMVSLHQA
# Melanocortin receptor 4 = Melanocortin receptor 4 (Homo sapiens, UniProt P32245); test: MC4R antagonist potency on cAMP, dose response, cell-based, TR-FRET, biased antagonists (AID 602298); format: functional;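 note: antagonist potency against agonist-stimulated cAMP production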
# Melanocortin receptor 4, sequence (P32245 whole entry): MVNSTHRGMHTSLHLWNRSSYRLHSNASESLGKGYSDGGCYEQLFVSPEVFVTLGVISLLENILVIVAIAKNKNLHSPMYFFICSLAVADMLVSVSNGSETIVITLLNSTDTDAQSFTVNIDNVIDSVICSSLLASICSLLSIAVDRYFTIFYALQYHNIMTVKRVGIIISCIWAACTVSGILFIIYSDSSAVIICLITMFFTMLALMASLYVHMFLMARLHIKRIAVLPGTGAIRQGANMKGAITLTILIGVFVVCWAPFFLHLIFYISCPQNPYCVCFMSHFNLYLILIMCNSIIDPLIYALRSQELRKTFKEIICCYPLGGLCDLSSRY
# [4] = biological target: T1, Nuclear receptor subfamily 0 group B member 1 (Homo sapiens, UniProt P51843); test: Luminescence-based cell-based high throughput dose response assay for inhibitors of the orphan nuclear receptor subfamily 0, group B, member 1 (DAX1; NR0B1). [Related pubchem assays (depositor defined):AID504766, AID504790]; format: functional
# T1 sequence (P51843 whole entry): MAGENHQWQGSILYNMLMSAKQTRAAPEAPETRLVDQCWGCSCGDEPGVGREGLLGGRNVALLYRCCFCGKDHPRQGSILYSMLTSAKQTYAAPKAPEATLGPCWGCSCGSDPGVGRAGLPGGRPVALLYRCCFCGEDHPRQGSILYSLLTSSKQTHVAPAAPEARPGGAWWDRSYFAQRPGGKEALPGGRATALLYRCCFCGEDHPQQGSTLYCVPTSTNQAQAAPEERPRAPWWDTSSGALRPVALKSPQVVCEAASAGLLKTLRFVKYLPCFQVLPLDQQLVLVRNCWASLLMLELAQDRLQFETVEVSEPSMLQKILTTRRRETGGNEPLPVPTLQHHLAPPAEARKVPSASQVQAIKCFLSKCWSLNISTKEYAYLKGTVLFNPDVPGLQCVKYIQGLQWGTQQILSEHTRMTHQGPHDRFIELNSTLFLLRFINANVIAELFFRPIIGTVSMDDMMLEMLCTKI
# [5] = biological target: T2, RNA-binding protein pos-1 (Caenorhabditis elegans, UniProt G5EF15); test: inhibitors of POS-1/mex-3 RNA binding, dose response, biochemical, fluorescence polarization (AID 1964);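 note: purified POS-1 fused to maltose binding protein made in E. coli; potency of compounds blocking POS-1 binding to fluorescent RNA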
# T2 sequence (G5EF15 whole entry): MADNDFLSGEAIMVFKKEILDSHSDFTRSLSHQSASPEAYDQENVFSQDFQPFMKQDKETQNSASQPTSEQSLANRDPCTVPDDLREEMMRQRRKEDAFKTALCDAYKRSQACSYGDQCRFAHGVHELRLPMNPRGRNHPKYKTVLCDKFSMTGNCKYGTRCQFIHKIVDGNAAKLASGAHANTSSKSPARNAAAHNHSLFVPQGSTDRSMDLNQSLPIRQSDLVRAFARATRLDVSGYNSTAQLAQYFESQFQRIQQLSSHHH
# [6] = biological target: Cystic fibrosis transmembrane conductance regulator/Golgi-associated PDZ and coiled-coil motif-containing protein (Homo sapiens, UniProt P13569+Q9HD26); test: CAL PDZ peptide-binding inhibitors, dose response, biochemical, fluorescence polarization, Cerulean-tagged CAL PDZ, cherry-picks (AID 504773)
# Cystic fibrosis transmembrane conductance regulator/Golgi-associated PDZ and coiled-coil motif-containing protein, sequence (P13569 whole entry, other chains not shown, the tested form may be a part): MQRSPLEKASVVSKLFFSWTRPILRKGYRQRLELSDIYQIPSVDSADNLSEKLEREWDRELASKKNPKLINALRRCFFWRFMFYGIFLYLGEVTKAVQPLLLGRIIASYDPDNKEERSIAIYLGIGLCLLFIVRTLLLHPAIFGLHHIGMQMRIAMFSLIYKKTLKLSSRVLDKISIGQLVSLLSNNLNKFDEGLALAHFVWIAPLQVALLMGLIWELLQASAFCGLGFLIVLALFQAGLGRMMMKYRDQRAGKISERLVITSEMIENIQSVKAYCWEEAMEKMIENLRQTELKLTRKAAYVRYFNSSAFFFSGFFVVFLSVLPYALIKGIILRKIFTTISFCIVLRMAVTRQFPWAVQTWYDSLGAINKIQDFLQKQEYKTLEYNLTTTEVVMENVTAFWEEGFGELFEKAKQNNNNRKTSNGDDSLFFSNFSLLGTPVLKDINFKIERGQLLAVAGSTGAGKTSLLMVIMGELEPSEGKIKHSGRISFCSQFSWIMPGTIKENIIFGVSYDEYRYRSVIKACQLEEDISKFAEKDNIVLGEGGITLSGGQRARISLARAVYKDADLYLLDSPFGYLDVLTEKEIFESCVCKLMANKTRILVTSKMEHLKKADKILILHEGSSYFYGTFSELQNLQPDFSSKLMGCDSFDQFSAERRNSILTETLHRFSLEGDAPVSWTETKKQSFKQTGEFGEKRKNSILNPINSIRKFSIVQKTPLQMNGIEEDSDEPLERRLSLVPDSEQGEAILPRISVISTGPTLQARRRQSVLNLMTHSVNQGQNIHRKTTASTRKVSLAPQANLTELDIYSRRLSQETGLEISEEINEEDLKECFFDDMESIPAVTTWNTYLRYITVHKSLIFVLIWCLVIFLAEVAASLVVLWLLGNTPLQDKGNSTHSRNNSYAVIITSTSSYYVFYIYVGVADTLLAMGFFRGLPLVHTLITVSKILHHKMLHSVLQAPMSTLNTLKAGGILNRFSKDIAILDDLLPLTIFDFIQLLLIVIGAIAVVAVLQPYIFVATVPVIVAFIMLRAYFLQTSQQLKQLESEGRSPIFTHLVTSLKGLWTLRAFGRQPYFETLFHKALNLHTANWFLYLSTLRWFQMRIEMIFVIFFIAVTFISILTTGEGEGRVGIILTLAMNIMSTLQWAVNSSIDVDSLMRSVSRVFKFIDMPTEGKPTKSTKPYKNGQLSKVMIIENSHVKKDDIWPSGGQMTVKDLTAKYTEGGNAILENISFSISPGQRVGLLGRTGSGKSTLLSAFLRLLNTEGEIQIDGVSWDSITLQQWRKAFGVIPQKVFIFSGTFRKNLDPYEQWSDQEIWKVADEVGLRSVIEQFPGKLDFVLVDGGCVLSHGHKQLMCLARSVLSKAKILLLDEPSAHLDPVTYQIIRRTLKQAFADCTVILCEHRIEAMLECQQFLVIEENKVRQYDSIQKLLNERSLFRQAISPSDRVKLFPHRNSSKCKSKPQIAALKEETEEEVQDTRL
# Hexokinase-1 = biological target: T3, Hexokinase-1 (Homo sapiens, UniProt P19367); test: SAR analysis of small molecule inhibitors of hexokinase domain containing I (HKDC1) in the hexokinase 1 selectivity assay. [Related pubchem assays (depositor defined):AID493160, AID493190]; format: functional
# T3 sequence (P19367 whole entry): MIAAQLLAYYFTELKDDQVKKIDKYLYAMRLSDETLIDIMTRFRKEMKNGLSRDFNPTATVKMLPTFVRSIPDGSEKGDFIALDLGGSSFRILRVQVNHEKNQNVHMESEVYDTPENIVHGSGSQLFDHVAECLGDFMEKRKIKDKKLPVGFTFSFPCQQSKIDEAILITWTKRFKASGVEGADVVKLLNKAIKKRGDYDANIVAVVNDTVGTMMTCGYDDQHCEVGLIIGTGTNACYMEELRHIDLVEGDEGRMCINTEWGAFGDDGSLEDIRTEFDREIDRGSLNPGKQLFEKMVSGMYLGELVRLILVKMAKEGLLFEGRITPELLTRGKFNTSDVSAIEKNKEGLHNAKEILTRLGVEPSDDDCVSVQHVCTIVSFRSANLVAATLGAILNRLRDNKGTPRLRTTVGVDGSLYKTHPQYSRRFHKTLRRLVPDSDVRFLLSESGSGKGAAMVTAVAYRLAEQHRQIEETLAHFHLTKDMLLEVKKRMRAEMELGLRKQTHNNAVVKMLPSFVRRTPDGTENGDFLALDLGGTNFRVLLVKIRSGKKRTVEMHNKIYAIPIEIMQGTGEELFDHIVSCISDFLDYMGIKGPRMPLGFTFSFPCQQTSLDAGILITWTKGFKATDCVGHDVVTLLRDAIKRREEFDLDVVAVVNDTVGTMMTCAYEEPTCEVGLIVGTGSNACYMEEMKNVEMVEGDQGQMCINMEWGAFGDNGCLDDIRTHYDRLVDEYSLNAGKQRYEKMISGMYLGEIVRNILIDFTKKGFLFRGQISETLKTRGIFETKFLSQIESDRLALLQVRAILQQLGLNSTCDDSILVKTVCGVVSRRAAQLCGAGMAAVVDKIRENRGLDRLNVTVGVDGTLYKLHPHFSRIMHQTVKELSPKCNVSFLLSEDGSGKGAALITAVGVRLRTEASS
# [7] = BHK-21 cell cytotoxicity, cytotoxicity control for flavivirus guanylyltransferase probe project, secondary screen (AID 624078); format: functional
structure (smiles),measurement,setting,value
Cc1nn(-c2ccccc2)c(Cl)c1CN(C(=O)CCl)c1ccc(Cl)cc1,EC50,[1],4.07 µM (active)
same,EC50,[2],1.92 µM (active)
same,Absolute IC50 (CHOP),[3],10 µM
same,IC50,Melanocortin receptor 4,> 64.6 µM (inactive)
Oc1ccccc1/C=C/c1noc(-c2ccccc2O)n1,IC50,[4],> 67.5 µM (inactive)
O=C(O)CSc1cc(NS(=O)(=O)c2ccc(Cl)cc2)c2ccccc2c1O,EC50,[5],36.8 µM (active)
same,AC50,[6],30 µM (active)
same,IC50,Hexokinase-1,> 80 µM (inactive)
same,CC50,[7],7.78 µM (active)
